Data: paper PMC9597602, “Metal Complexes as Antifungals? From a Crowd-Sourced Compound Library to the First In Vivo Experiments” (JACS Au, 2022)
Where “and” joins values, the source holds several entries; their conditions need not be identical. Equal entries are not always repeated. Where two headings read alike, the source gives them in different places. Starred links: 1 amine or outer side, 2 acyl side, 3 side chain; linkers in the order of their positions; H or OH if unused. Positions of bridges follow the written chain, without caps; N, C: chain ends. Non-standard residues stand in square brackets, D forms with d. Residues, ends and D or L forms follow the SMILES beside them. *: point of attachment. pTerphenylCO(4''-OnC5H11) = CCCCCOc1ccc(-c2ccc(-c3ccc(C(=O)*)cc3)cc2)cc1; Orn(4R-OH,5R-OH) = O=C([C@H](C[C@@H](O)[C@@H](O)N[*:3])N[*:1])[*:2]; hTyr(3S-OH,4S-OH) = N[C@H](C(=O)O)[C@H](O)[C@@H](O)c1ccc(O)cc1; Pro(3S-OH,4S-Me) = C[C@H]1CN[C@H](C(=O)O)[C@H]1O; Hyp = O=C(O)[C@@H]1C[C@@H](O)CN1

Key:
Assay type in all cases: cell-based
[1] = tested on: Candida albicans ATCC 90028 NCCLS11; test: Antifungal MIC assay; conditions: Candida albicans, ATCC90028, comparator antifungals, read-out: MIC* Candida albicans ATCC 90028
Description: For the fungal assays, both fungi (yeast) strains were cultured for 3 days on Yeast Extract-Peptone Dextrose (YPD; Becton Dickinson 242720) agar at 30 °C. A yeast suspension of 1 × 10^6 to 5 × 10^6 CFU/mL (as determined by OD530) was prepared from five colonies from the agar plates, subsequently diluted with Yeast Nitrogen Base media (YNB; Becton Dickinson 233520), and added to each well of the compound containing plates (384-well plates, NBS; Corning CLS3640), giving a final cell density of 2.5 × 10^3 CFU/mL and a total volume of 50 μL. Plates were covered and incubated at 35 °C for 36 h without shaking. […] […], equivalent to ″optically clear-to-slightly hazy″ or MIC score of 0–1 as per CLSI guidelines M27 Reference Method for Broth Dilution Antifungal Susceptibility Testing of Yeasts. […] Fluconazole (Sigma F8929) was used as internal control on each plate for all strains. All compounds were tested as two technical replicates in two to four independent biological assays, n = 4–8 final data.

[2] = tested on: Cryptococcus neoformans H99 ATCC 208821 type strain; test: Antifungal MIC assay; conditions: Cryptococcus neoformans
Description: (§1) For the fungal assays, both fungi (yeast) strains were cultured for 3 days on Yeast Extract-Peptone Dextrose (YPD; Becton Dickinson 242720) agar at 30 °C. A yeast suspension of 1 × 10^6 to 5 × 10^6 CFU/mL (as determined by OD530) was prepared from five colonies from the agar plates, subsequently diluted with Yeast Nitrogen Base media (YNB; Becton Dickinson 233520), and added to each well of the compound containing plates (384-well plates, NBS; Corning CLS3640), giving a final cell density of 2.5 × 10^3 CFU/mL and a total volume of 50 μL. Plates were covered and incubated at 35 °C for 36 h without shaking. […] MIC values were recorded as the lowest concentration at which the growth was inhibited by ≥80%, equivalent to ″optically clear-to-slightly hazy″ or MIC score of 0–1 as per CLSI guidelines M27 Reference Method for Broth Dilution Antifungal Susceptibility Testing of Yeasts. […] Fluconazole (Sigma F8929) was used as internal control on each plate for all strains. All compounds were tested as two technical replicates in two to four independent biological assays, n = 4–8 final data.

[3] = tested on: Candida auris CBS10913 JCM 15448; test: Antifungal MIC assay, extended panel; conditions: Candidozyma auris, comparator antifungals, read-out: MIC* Candida auris CBS10913
Description: (§2) For the fungal assays, both fungi (yeast) strains were cultured for 3 days on Yeast Extract-Peptone Dextrose (YPD; Becton Dickinson 242720) agar at 30 °C. A yeast suspension of 1 × 10^6 to 5 × 10^6 CFU/mL (as determined by OD530) was prepared from five colonies from the agar plates, subsequently diluted with Yeast Nitrogen Base media (YNB; Becton Dickinson 233520), and added to each well of the compound containing plates (384-well plates, NBS; Corning CLS3640), giving a final cell density of 2.5 × 10^3 CFU/mL and a total volume of 50 μL. Plates were covered and incubated at 35 °C for 36 h without shaking. […] MIC […] Reference Method for Broth Dilution Antifungal Susceptibility Testing of Yeasts. […] Fluconazole (Sigma F8929) was used as internal control on each plate for all strains. All compounds were tested as two technical replicates in two to four independent biological assays, n = 4–8 final data.

[4] = tested on: Candida auris CBS12373 KCTC 17810; test: Antifungal MIC assay, extended panel; conditions: Candidozyma auris, comparator antifungals, read-out: MIC* Candida auris CBS12373
Description: as §2

[5] = tested on: Candida glabrata ATCC 90030 NCCLS 84; test: Antifungal MIC assay, extended panel; conditions: Nakaseomyces glabratus, ATCC90030, comparator antifungals
Description: as §1

[6] = tested on: Candida tropicalis ATCC 750; test: Antifungal MIC assay, extended panel; conditions: Candida tropicalis, ATCC750, comparator antifungals
Description: as §1

[7] = tested on: Cryptococcus deuterogattii ATCC 32609 VGII; test: Antifungal MIC assay, extended panel; conditions: Cryptococcus deuterogattii, ATCC32609, comparator antifungals
Description: as §1

[8] = tested on: Cryptococcus deuterogattii CBS7750 VGII; Serotype B; test: Antifungal MIC assay, extended panel; conditions: Cryptococcus deuterogattii, CBS7750, comparator antifungals
Description: as §1

[9] = ≥80% inhibition, converted with MW of Table S12
[10] = ATCC208821, comparator antifungals, MIC = ≥80% inhibition, read-out: MIC* Cryptococcus neoformans ATCC 208821
[11] = ATCC208821, comparator antifungals, ≥80% inhibition, converted with MW of Table S12, read-out: MIC* Cryptococcus neoformans ATCC 208821

Row | Compound | MIC [2, 10] [mg/L] | MIC [2, 11] [µM] | MIC ([1]; MIC = ≥80% inhibition) [mg/L] | MIC [1, 9] [µM] | MIC ([3]; MIC = ≥80% inhibition) [mg/L] | MIC [3, 9] [µM] | MIC ([4]; MIC = ≥80% inhibition) [mg/L] | MIC [4, 9] [µM] | MIC ([5]; MIC = ≥80% inhibition) [mg/L] | MIC [5, 9] [µM] | MIC ([6]; MIC = ≥80% inhibition) [mg/L] | MIC [6, 9] [µM] | MIC ([7]; MIC = ≥80% inhibition) [mg/L] | MIC [7, 9] [µM] | MIC ([8]; MIC = ≥80% inhibition) [mg/L] | MIC [8, 9] [µM] | MIC ([2]; ATCC208821, read-out: MIC* Cryptococcus neoformans ATCC 208821)
1 | CCC(C)n1ncn(-c2ccc(N3CCN(c4ccc(OCC5COC(Cn6cncn6)(c6ccc(Cl)cc6Cl)O5)cc4)CC3)cc2)c1=O (stereo not shown) [Itraconazole, reference compound] | 1 to 2 | 1.42 to 2.83 | 0.062 to 0.25 | 0.089 to 0.354 | 0.063 | 0.089 | 2 | 2.83 | 32 | 45 | 2 | 2.83 | 2 to 8 | 2.83 to 11.3 | 2 to 4 | 2.83 to 5.67 | –
2 | CC[C@@H]([C@H](C)O)n1ncn(-c2ccc(N3CCN(c4ccc(OC[C@@H]5CO[C@@](Cn6cncn6)(c6ccc(F)cc6F)C5)cc4)CC3)cc2)c1=O [Posaconazole, reference compound] | 0.016 to 0.125 | 0.032 to 0.253 | 0.001 to 0.031 | 0.002 to 0.063 | 0.031 to 0.063 | 0.063 to 0.126 | 2 | 4.04 | 2 | 4.04 | 0.125 | 0.253 | 0.015 to 0.25 | 0.032 to 0.506 | 0.06 to 0.125 | 0.126 to 0.253 | –
3 | Nc1nc(=O)[nH]cc1F [5-Fluorocytosine, reference compound] | 0.001 to 0.016 | 0.0107 to 0.172 | ≤ 0.001 | ≤ 0.012 | ≤ 0.002 | ≤ 0.021 | ≤ 0.002 | ≤ 0.021 | > 32 | > 351 | 0.001 to 0.002 | 0.012 to 0.021 | 0.002 to 0.25 | 0.021 to 2.75 | 0.06 to 0.25 | 0.686 to 2.75 | –
4 | CCCCCOc1ccc(-c2ccc(-c3ccc(C(=O)N[C@H]4C[C@@H](O)[C@@H](O)NC(=O)[C@@H]5[C@@H](O)[C@@H](C)CN5C(=O)[C@H]([C@@H](C)O)NC(=O)[C@H]([C@H](O)[C@@H](O)c5ccc(O)cc5)NC(=O)[C@@H]5C[C@@H](O)CN5C(=O)[C@H]([C@@H](C)O)NC4=O)cc3)cc2)cc1 [Anidulafungin, reference compound] ({pTerphenylCO(4''-OnC5H11)}-[Orn(4R-OH,5R-OH)]T[Hyp][hTyr(3S-OH,4S-OH)]T[Pro(3S-OH,4S-Me)]; lactam 1-C) | – | – | 0.031 to 0.125 | 0.027 to 0.11 | 0.031 to 0.125 | 0.027 to 0.11 | 0.25 | 0.219 | 0.008 | 0.007 | 0.004 to 0.008 | 0.003 to 0.007 | 0.003 to 0.25 | 0.003 to 0.219 | 0.06 to 0.25 | 0.055 to 0.219 | 0.016 µg/mL to 0.125 µg/mL and 0.014 µM to 0.11 µM

Continued, in another order:

Row | MIC [2, 10] [mg/L] | MIC [2, 11] [µM] | Compound | MIC ([1]; MIC = ≥80% inhibition) [mg/L] | MIC [1, 9] [µM] | MIC ([3]; MIC = ≥80% inhibition) [mg/L] | MIC [3, 9] [µM] | MIC ([4]; MIC = ≥80% inhibition) [mg/L] | MIC [4, 9] [µM] | MIC ([5]; MIC = ≥80% inhibition) [mg/L] | MIC [5, 9] [µM] | MIC ([6]; MIC = ≥80% inhibition) [mg/L] | MIC [6, 9] [µM] | MIC ([7]; MIC = ≥80% inhibition) [mg/L] | MIC [7, 9] [µM] | MIC ([8]; MIC = ≥80% inhibition) [mg/L] | MIC [8, 9] [µM] | MIC ([2]; ATCC208821, read-out: MIC* Cryptococcus neoformans ATCC 208821)
5 | 2 to 8 | 3.01 to 12.3 | C[C@@H]1[C@H](O)[C@@H](C)/C=C/C=C/C=C/C=C/C=C/C=C/C=C/[C@H](O[C@@H]2O[C@H](C)[C@@H](O)[C@H](N)[C@@H]2O)C[C@@H]2O[C@](O)(C[C@@H](O)C[C@@H](O)[C@H](O)CC[C@@H](O)C[C@@H](O)CC(=O)O[C@H]1C)C[C@H](O)[C@H]2C(=O)O [Amphotericin B, reference compound] | 0.125 to 1 | 0.192 to 1.53 | 16 | 24.5 | > 128 | ≥ 196 | ≥ 64 | ≥ 98.2 | 2 to 4 | 3.01 to 6.13 | 4 to 16 | 6.13 to 24.5 | 1 to 8 | 1.53 to 12.3 | –
6 | 0.098 to 1.56 | 0.089 to 1.43 | CC[C@H](C)C[C@H](C)CCCCCCCCC(=O)N[C@H]1C[C@@H](O)[C@@H](NCCN)NC(=O)[C@@H]2[C@@H](O)CCN2C(=O)[C@H]([C@H](O)CCN)NC(=O)[C@H]([C@H](O)[C@@H](O)c2ccc(O)cc2)NC(=O)[C@@H]2C[C@@H](O)CN2C(=O)[C@H]([C@@H](C)O)NC1=O [Caspofungin, reference compound] | 0.391 to 1.56 | 0.357 to 1.43 | 6.25 | 5.72 | 12.5 | 11.4 | 6.25 to 12.5 | 5.72 to 11.4 | 1.56 | 1.43 | 0.1 to 0.63 | – | 0.06 to 0.1 | 0.029 to 0.089 | –
